{"source": "patent US20100267561A1", "about": "“HERBICIDAL PYRIDAZINONE DERIVATIVES” (priority 2007, published 2010)", "assay_type_in_all_cases": "in vivo", "key": {"[1]": {"test_system": "giant foxtail (Setaria faberii)", "assay": "Test B pre-/postemergence plant response", "from_the_text": "(§1) Seeds of plant species selected from blackgrass (Alopecurus myosuroides), downy bromegrass (Bromus tectorum), green foxtail (Setaria viridis), Italian ryegrass (Lolium multiflorum), wheat (Triticum aestivum), wild oat (Avena fatua), catchweed bedstraw (Galium aparine), bermudagrass (Cynodon dactylon), surinam grass (Brachiaria decumbens), cocklebur (Xanthium strumarium), corn (Zea mays), large crabgrass (Digitaria sanguinalis), woolly cupgrass (Eriochloa villosa), giant foxtail (Setaria faberii), goosegrass (Eleusine indica), johnsongrass (Sorghum halepense), kochia (Kochia scoparia), lambsquarters (Chenopodium album), morningglory (Ipomoea coccinea), eastern black (E.B.) nightshade (Solanum ptycanthum), yellow nutsedge (Cyperus esculentus), pigweed (Amaranthus retroflexus), common ragweed (Ambrosia elation), Russian thistle (Salsola iberica), soybean (Glycine max), common (oilseed) sunflower (Helianthus annuus), and velvetleaf (Abutilon theophrasti) were planted and treated preemergence with test chemicals formulated in a non-phytotoxic solvent mixture which included a surfactant.\n(§2) At the same time, plants selected from these crop and weed species and also winter barley (Hordeum vulgare), canarygrass (Phalaris minor), chickweed (Stellaria media) and windgrass (Apera spica-venti) were treated with postemergence applications of some of the test chemicals formulated in the same manner. Plants ranged in height from 2 to 18 cm (1- to 4-leaf stage) for postemergence treatments.\n(§3) Plant species in the flooded paddy test consisted of rice (Oryza sativa), umbrella sedge (Cyperus difformis), ducksalad (Heteranthera limosa) and barnyardgrass (Echinochloa crus-galli) grown to the 2-leaf stage for testing. At time of treatment, test pots were flooded to 3 cm above the soil surface, treated by application of test compounds directly to the paddy water, and then maintained at that water depth for the duration of the test. Treated plants and controls were maintained in a greenhouse for 13 to 15 days, after which time all species were compared to controls and visually evaluated. Plant response ratings, summarized in Table B, are based on a scale of 0 to 100 where 0 is no effect and 100 is complete control. A dash (-) response means no test result."}, "[2]": {"test_system": "wheat (Triticum aestivum)", "assay": "Test B pre-/postemergence plant response", "from_the_text": "as §1, §2, §3"}, "[3]": {"test_system": "eastern black (E.B.) nightshade (Solanum ptycanthum)", "assay": "Test B pre-/postemergence plant response", "details": "Preemergence", "from_the_text": "as §1, §2, §3"}, "[4]": {"test_system": "surinam grass (Brachiaria decumbens)", "assay": "Test B pre-/postemergence plant response", "from_the_text": "as §1, §2, §3"}, "[5]": {"test_system": "common (oilseed) sunflower (Helianthus annuus)", "assay": "Test B pre-/postemergence plant response", "details": "Preemergence", "from_the_text": "as §1, §2, §3"}, "soybean (Glycine max)": {"test_system": "soybean (Glycine max)", "assay": "Test B pre-/postemergence plant response", "from_the_text": "as §1, §2, §3"}, "[6]": {"test_system": "downy bromegrass (Bromus tectorum)", "assay": "Test B pre-/postemergence plant response", "from_the_text": "as §1, §2, §3"}, "[7]": {"test_system": "morningglory (Ipomoea coccinea)", "assay": "Test B pre-/postemergence plant response", "from_the_text": "as §1, §2, §3"}, "[8]": {"test_system": "goosegrass (Eleusine indica)", "assay": "Test B pre-/postemergence plant response", "from_the_text": "as §1, §2, §3"}, "[9]": {"test_system": "umbrella sedge (Cyperus difformis)", "assay": "Test B flooded paddy test plant response", "summary_of_the_method": "(§4)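 Compounds were added directly to paddy water over 2-leaf-stage plants in pots flooded 3 cm above soil, water depth maintained. Visual injury scored against controls after 13 to 15 days in greenhouse, 0 (none) to 100 (complete control); dash indicates no result.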"}, "[10]": {"test_system": "barnyardgrass (Echinochloa crus-galli)", "assay": "Test B flooded paddy test plant response", "summary_of_the_method": "as §4"}, "rice (Oryza sativa)": {"test_system": "rice (Oryza sativa)", "assay": "Test B flooded paddy test plant response", "summary_of_the_method": "as §4"}, "[11]": {"test_system": "ducksalad (Heteranthera limosa)", "assay": "Test B flooded paddy test plant response", "summary_of_the_method": "as §4"}, "[12]": {"details": "Postemergence, 31 g ai/ha, scale 0 to 100, 0 no effect, 100 complete control"}, "[13]": {"details": "Postemergence, 62 g ai/ha, scale 0 to 100"}, "[14]": {"details": "Postemergence, 125 g ai/ha, scale 0 to 100"}, "[15]": {"details": "Postemergence, 250 g ai/ha, scale 0 to 100"}, "[16]": {"details": "Preemergence, 31 g ai/ha, 0 to 100 scale, 0 no effect, 100 complete control"}, "[17]": {"details": "Preemergence, 62 g ai/ha, scale 0 to 100"}, "[18]": {"details": "Preemergence, 125 g ai/ha, scale 0 to 100"}, "[19]": {"details": "Preemergence, 250 g ai/ha, scale 0 to 100"}, "[20]": {"details": "31 g ai/ha, 0 to 100 scale, 0 no effect, 100 complete control"}, "[21]": {"details": "Flood (flooded paddy test), 62 g ai/ha, scale 0 to 100, 0 no effect, 100 complete control"}, "[22]": {"details": "Flood (flooded paddy test), 125 g ai/ha, scale 0 to 100, 0 no effect, 100 complete control"}, "[23]": {"details": "Flood (flooded paddy test), 250 g ai/ha, scale 0 to 100, 0 no effect, 100 complete control"}, "[24]": {"details": "Flood, 31 g ai/ha, scale 0 to 100"}}, "data": [{"substance": "5-[3-(4-chlorophenyl)-5-methyl-1H-pyrazol-1-yl]-1,6-dihydro-1-methyl-6-oxo-4-pyridazinyl-1-methylethyl carbonate [Compound 7]", "values": [{"measurement": "Plant response rating, Foxtail, Giant", "setting": "[1]; [12]", "value": 98}, {"measurement": "Plant response rating, Foxtail, Giant", "setting": "[1]; [13]", "value": 100}, {"measurement": "Plant response rating, Foxtail, Giant", "setting": "[1]; [14]", "value": 100}, {"measurement": "Plant response rating, Foxtail, Giant", "setting": "[1]; [15]", "value": 100}, {"measurement": "Plant response rating, Foxtail, Giant", "setting": "[1]; [16]", "value": 100}, {"measurement": "Plant response rating, Foxtail, Giant", "setting": "[1]; [17]", "value": 100}, {"measurement": "Plant response rating, Foxtail, Giant", "setting": "[1]; [18]", "value": 100}, {"measurement": "Plant response rating, Foxtail, Giant", "setting": "[1]; [19]", "value": 100}, {"measurement": "Plant response rating, Wheat", "setting": "[2]; [12]", "value": 60}, {"measurement": "Plant response rating, Wheat", "setting": "[2]; [13]", "value": 80}, {"measurement": "Plant response rating, Wheat", "setting": "[2]; [14]", "value": 95}, {"measurement": "Plant response rating, Wheat", "setting": "[2]; [16]", "value": 0}, {"measurement": "Plant response rating, Wheat", "setting": "[2]; [17]", "value": 65}, {"measurement": "Plant response rating, Wheat", "setting": "[2]; [18]", "value": 80}, {"measurement": "Plant response rating, Wheat", "setting": "[2]; [19]", "value": 95}, {"measurement": "Plant response rating, Nightshade, E. B.", "setting": "[3]; [20]", "value": 30}, {"measurement": "Plant response rating, Nightshade, E. B.", "setting": "[3]; 62 g ai/ha, scale 0 to 100", "value": 30}, {"measurement": "Plant response rating, Nightshade, E. B.", "setting": "[3]; 125 g ai/ha, scale 0 to 100", "value": 100}, {"measurement": "Plant response rating, Nightshade, E. B.", "setting": "[3]; 250 g ai/ha, scale 0 to 100", "value": 100}, {"measurement": "Plant response rating, Surinam Grass", "setting": "[4]; [12]", "value": 100}, {"measurement": "Plant response rating, Surinam Grass", "setting": "[4]; [13]", "value": 100}, {"measurement": "Plant response rating, Surinam Grass", "setting": "[4]; [14]", "value": 100}, {"measurement": "Plant response rating, Surinam Grass", "setting": "[4]; [15]", "value": 100}, {"measurement": "Plant response rating, Surinam Grass", "setting": "[4]; [16]", "value": 98}, {"measurement": "Plant response rating, Surinam Grass", "setting": "[4]; [17]", "value": 100}, {"measurement": "Plant response rating, Surinam Grass", "setting": "[4]; [18]", "value": 100}, {"measurement": "Plant response rating, Surinam Grass", "setting": "[4]; [19]", "value": 100}, {"measurement": "Plant response rating, Sunflower", "setting": "[5]; [20]", "value": 0}, {"measurement": "Plant response rating, Sunflower", "setting": "[5]; 62 g ai/ha, scale 0 to 100", "value": 0}, {"measurement": "Plant response rating, Sunflower", "setting": "[5]; 125 g ai/ha, scale 0 to 100", "value": 0}, {"measurement": "Plant response rating, Sunflower", "setting": "[5]; 250 g ai/ha, scale 0 to 100", "value": 0}, {"measurement": "Plant response rating, Soybean", "setting": "soybean (Glycine max); [12]", "value": 0}, {"measurement": "Plant response rating, Soybean", "setting": "soybean (Glycine max); [13]", "value": 0}, {"measurement": "Plant response rating, Soybean", "setting": "soybean (Glycine max); [18]", "value": 0}, {"measurement": "Plant response rating, Soybean", "setting": "soybean (Glycine max); [19]", "value": 0}, {"measurement": "Plant response rating, Bromegrass, Downy", "setting": "[6]; [12]", "value": 0}, {"measurement": "Plant response rating, Bromegrass, Downy", "setting": "[6]; [13]", "value": 0}, {"measurement": "Plant response rating, Bromegrass, Downy", "setting": "[6]; [14]", "value": 0}, {"measurement": "Plant response rating, Bromegrass, Downy", "setting": "[6]; [15]", "value": 0}, {"measurement": "Plant response rating, Bromegrass, Downy", "setting": "[6]; [16]", "value": 35}, {"measurement": "Plant response rating, Bromegrass, Downy", "setting": "[6]; [17]", "value": 35}, {"measurement": "Plant response rating, Bromegrass, Downy", "setting": "[6]; [18]", "value": 60}, {"measurement": "Plant response rating, Bromegrass, Downy", "setting": "[6]; Preemergence, 250 g ai/ha, scale 0 to 100 (0 no effect, 100 complete control)", "value": 60}, {"measurement": "Plant response rating, Morningglory", "setting": "[7]; [12]", "value": 0}, {"measurement": "Plant response rating, Morningglory", "setting": "[7]; [13]", "value": 0}, {"measurement": "Plant response rating, Morningglory", "setting": "[7]; [14]", "value": 0}, {"measurement": "Plant response rating, Morningglory", "setting": "[7]; [15]", "value": 0}, {"measurement": "Plant response rating, Morningglory", "setting": "[7]; [16]", "value": 0}, {"measurement": "Plant response rating, Morningglory", "setting": "[7]; [17]", "value": 0}, {"measurement": "Plant response rating, Morningglory", "setting": "[7]; [18]", "value": 0}, {"measurement": "Plant response rating, Morningglory", "setting": "[7]; [19]", "value": 0}, {"measurement": "Plant response rating, Goosegrass", "setting": "[8]; [12]", "value": 95}, {"measurement": "Plant response rating, Goosegrass", "setting": "[8]; [13]", "value": 100}, {"measurement": "Plant response rating, Goosegrass", "setting": "[8]; [14]", "value": 100}, {"measurement": "Plant response rating, Goosegrass", "setting": "[8]; [15]", "value": 100}, {"measurement": "Plant response rating, Goosegrass", "setting": "[8]; [16]", "value": 85}, {"measurement": "Plant response rating, Goosegrass", "setting": "[8]; [17]", "value": 90}, {"measurement": "Plant response rating, Goosegrass", "setting": "[8]; [18]", "value": 100}, {"measurement": "Plant response rating, Goosegrass", "setting": "[8]; [19]", "value": 100}, {"measurement": "Plant response rating, Sedge, Umbrella", "setting": "[9]; [21]", "value": 80}, {"measurement": "Plant response rating, Sedge, Umbrella", "setting": "[9]; [22]", "value": 80}, {"measurement": "Plant response rating, Sedge, Umbrella", "setting": "[9]; [23]", "value": 80}, {"measurement": "Plant response rating, Sedge, Umbrella", "setting": "[9]; [24]", "value": 70}, {"measurement": "Plant response rating, Barnyardgrass", "setting": "[10]; [21]", "value": 45}, {"measurement": "Plant response rating, Barnyardgrass", "setting": "[10]; [22]", "value": 65}, {"measurement": "Plant response rating, Barnyardgrass", "setting": "[10]; [23]", "value": 85}, {"measurement": "Plant response rating, Barnyardgrass", "setting": "[10]; [24]", "value": 20}, {"measurement": "Plant response rating, Rice", "setting": "rice (Oryza sativa); [21]", "value": 30}, {"measurement": "Plant response rating, Rice", "setting": "rice (Oryza sativa); [22]", "value": 45}, {"measurement": "Plant response rating, Rice", "setting": "rice (Oryza sativa); [23]", "value": 65}, {"measurement": "Plant response rating, Rice", "setting": "rice (Oryza sativa); [24]", "value": 20}, {"measurement": "Plant response rating, Ducksalad", "setting": "[11]; [21]", "value": 0}, {"measurement": "Plant response rating, Ducksalad", "setting": "[11]; [22]", "value": 20}, {"measurement": "Plant response rating, Ducksalad", "setting": "[11]; [23]", "value": 40}, {"measurement": "Plant response rating, Ducksalad", "setting": "[11]; [24]", "value": 0}]}]}
